# Legend:
# [1] = test system: in-house panel of 89–105 kinases; assay: DSF selectivity screen; type: binding; conditions: number of kinases of the DSF panel
# From the text: (§1) To investigate the selectivity profile of the different series, a differential scanning fluorimetry (DSF) assay was used. This assay offers a rapid and sensitive screening method that determines the denaturation temperature of a protein in absence and presence of a compound. This assay format measures the fluorescence of a dye, which depends on the folding state of the protein. The difference between the melting temperature (ΔTm) in the absence and presence of the compound represents the binding strength to the protein. We used an in-house panel of 89–105 kinases to screen all synthesized inhibitors (Tables S1–S3).
# (§2) Measurements were performed in duplicates.
# CDK16 and GSK3 = assay: proteome-wide CETSA MS; type: cell-based; conditions: K562 cells, 30 µM, 60 min
# Description: To verify whether the substances also lead to stabilization of proteins in the cellular system, proteome-wide CETSA experiments were performed. Therefore, lead structure 1 and some compounds from the second series (21b, 21d, 21e, 21h, and 21i) were selected for this study (Figure 6, Figure S1). While the statistical significance is plotted on the Y-axis, the relative protein amount is shown on the X-axis. […] Based on excellent proteome-wide selectivity identifying CDK16 and GSK3 as the most prominently stabilized kinases, 21d and 21i were selected for further investigations. […] We therefore decided to proceed with a CDK16-specific cellular assay.
# Compressed CETSA MS assays, also known as PISA (Proteome Integral Stability Alteration assay), were performed as previously described by Chernobrovkin et. al., with some minor changes. K562 cells were obtained from ATCC. K562 cells were mixed with an equal volume of compound solution, final concentartion of 30 µM, in a buffer (20 mM HEPES, 138 mM NaCl, 5 mM KCl, 2 mM CaCl2, 1 mM MgCl2, pH 7.4). One percent and DMSO was used as a control. Cells were incubated at +37 °C for 60 min. The cell suspension was split into 12 aliquots which were heated at a different temperature between 44 and 66 °C for 3 min. After the heating, the cells were lysed through freeze–thawing them 3 times and the lysed aliquots were pooled together. Cell debris and aggregates were removed through centrifugation (20 min at 30.000× g).
# CDK16 = biological target: T1, CDK16 (Homo sapiens, UniProt Q00536); assay: DSF; type: binding; conditions: 10 μM compound
# T1 construct: purchased in-house DSF panel (SGC Frankfurt)
# T1 sequence (Q00536 163-478): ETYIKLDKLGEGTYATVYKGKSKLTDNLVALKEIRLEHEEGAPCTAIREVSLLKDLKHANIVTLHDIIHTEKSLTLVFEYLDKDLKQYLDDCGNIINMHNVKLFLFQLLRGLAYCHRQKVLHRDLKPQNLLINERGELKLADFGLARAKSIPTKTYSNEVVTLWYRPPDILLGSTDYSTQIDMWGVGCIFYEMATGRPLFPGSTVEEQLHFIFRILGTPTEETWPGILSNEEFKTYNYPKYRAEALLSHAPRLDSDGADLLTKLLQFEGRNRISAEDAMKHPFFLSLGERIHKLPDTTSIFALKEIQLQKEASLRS
# From the text: as §1, with “protein.” for “protein. We used an in-house panel of 89–105 kinases to screen all synthesized inhibitors (Tables S1–S3).”
# as §2
# CDK2 [2] = biological target: T2, CDK2 (Homo sapiens, UniProt P24941); assay: DSF; type: binding; conditions: 10 μM compound
# T2 construct: purchased in-house DSF panel (SGC Frankfurt)
# From the text: as §1, with “protein.” for “protein. We used an in-house panel of 89–105 kinases to screen all synthesized inhibitors (Tables S1–S3).”
# as §2
# CDK16/Cyclin Y = biological target: T3, CDK16/Cyclin Y (Homo sapiens, UniProt Q00536); assay: NanoBRET; type: cell-based; conditions: Figure 7, 11-point dose-response in duplicates; read-out: NanoBRET EC50 ± SEM against CDK16
# T3 construct: Full-length kinases were obtained as plasmids cloned in frame with a terminal NanoLuc-fusion; CS1810C178 (CCNY); host or cells: HEK293T
# T3 sequence (Q00536 whole entry, the tested form may be a part): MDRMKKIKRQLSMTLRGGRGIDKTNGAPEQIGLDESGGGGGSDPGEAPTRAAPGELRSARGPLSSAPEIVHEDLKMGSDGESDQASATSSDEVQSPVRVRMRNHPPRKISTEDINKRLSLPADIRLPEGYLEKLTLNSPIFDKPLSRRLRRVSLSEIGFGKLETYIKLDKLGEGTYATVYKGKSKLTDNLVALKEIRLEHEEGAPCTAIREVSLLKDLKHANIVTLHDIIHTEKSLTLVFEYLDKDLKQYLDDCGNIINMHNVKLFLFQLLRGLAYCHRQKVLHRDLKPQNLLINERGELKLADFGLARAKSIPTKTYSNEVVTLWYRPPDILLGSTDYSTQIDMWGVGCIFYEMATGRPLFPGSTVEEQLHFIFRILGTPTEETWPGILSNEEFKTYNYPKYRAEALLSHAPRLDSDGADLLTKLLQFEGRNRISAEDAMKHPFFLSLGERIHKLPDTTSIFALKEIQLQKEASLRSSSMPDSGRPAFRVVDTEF
# T3 sequence (Q8ND76 2-341 partner limits assumed): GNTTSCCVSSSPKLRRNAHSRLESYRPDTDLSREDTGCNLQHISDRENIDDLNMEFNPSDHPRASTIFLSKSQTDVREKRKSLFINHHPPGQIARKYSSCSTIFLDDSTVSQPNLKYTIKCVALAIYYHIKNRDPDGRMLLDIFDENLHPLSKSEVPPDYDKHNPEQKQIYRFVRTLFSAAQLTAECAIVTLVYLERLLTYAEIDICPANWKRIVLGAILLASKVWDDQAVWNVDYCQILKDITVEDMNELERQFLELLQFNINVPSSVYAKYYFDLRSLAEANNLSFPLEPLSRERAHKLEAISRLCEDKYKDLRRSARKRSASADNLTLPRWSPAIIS
# Description: Next, to specifically quantify the outcome of the cellular activity of the compounds, a NanoBRET cellular target engagement assay was performed. The determination of the cellular potency on CDK16 correlated well with the corresponding DSF assay data (Figure S2). […] As mentioned before, the exchange from a methyl ester to an iso-propyl or tert-butyl ester led to a higher stabilization of the kinase in the DSF assay, which correlated with an increase in cellular potency as determined in the NanoBRET assay. […] The number of potential off-targets was low with 1 and 2 kinases with ΔTm >5 °C (Figure 4), highlighting these inhibitors for more comprehensive selectivity studied within the CDK and particular the TAIRE subfamily.
# (§3) The assay was performed as described previously. In brief: Full-length kinases were obtained as plasmids cloned in frame with a terminal NanoLuc-fusion (Promega, Madison, WI, USA), as specified in table (Table S6). Plasmids were transfected into HEK293T cells using FuGENE HD (Promega, E2312) and proteins were allowed to express for 20h. Serially diluted inhibitor and NanoBRET Kinase Tracer (Promega) at a concentration determined previously as the KD,app (Table S5) were pipetted into white 384-well plates (Greiner 781207) using an Echo acoustic dispenser (Labcyte, San Jose, CA, USA). The corresponding protein-transfected cells were added and reseeded at a density of 2.5 × 10^5 cells/mL after trypsinization and resuspending in Opti-MEM without phenol red (Life Technologies, Carlsbad, CA, USA). The system was allowed to equilibrate for 2 h at 37 °C/5% CO2 prior to BRET measurements. To measure BRET, NanoBRET NanoGlo Substrate + Extracellular NanoLuc Inhibitor (Promega, N2540) was added as per the manufacturer’s protocol, and filtered luminescence was measured on a PHERAstar plate reader (BMG Labtech, Ortenberg, Germany) equipped with a luminescence filter pair (450 nm BP filter (donor) and 610 nm LP filter (acceptor)). Competitive displacement data were then graphed using GraphPad Prism 9 software using a normalized 3-parameter curve fit with the following equation: Y = 100/(1 + 10^(X–LogEC50)).
# GSK3B [3] = biological target: T4, GSK3B (Homo sapiens, UniProt P49841); assay: DSF; type: binding; design: purchased in-house DSF panel (SGC Frankfurt); conditions: 10 μM compound
# From the text: as §1, with “protein.” for “protein. We used an in-house panel of 89–105 kinases to screen all synthesized inhibitors (Tables S1–S3).”
# as §2
# Target sequence in this assay (P49841 35-386): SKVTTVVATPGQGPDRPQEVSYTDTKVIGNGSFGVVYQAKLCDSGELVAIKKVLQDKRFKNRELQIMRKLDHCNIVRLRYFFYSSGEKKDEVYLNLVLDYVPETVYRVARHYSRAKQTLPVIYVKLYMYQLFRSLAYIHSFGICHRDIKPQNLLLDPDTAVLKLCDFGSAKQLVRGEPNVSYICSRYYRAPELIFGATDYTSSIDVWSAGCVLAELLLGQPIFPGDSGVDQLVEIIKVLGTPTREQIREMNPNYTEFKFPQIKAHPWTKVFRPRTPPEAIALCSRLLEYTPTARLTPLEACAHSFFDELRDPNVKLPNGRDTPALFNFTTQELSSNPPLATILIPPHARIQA
# 359 wild-type kinases = test system: 359 wild-type kinases; design: method as in PMID 19053485; conditions: kinome-wide screen; cited from earlier work
# GSK3B [4] = biological target: T4, GSK3B; assay: NanoBRET; type: cell-based; design: Full-length kinases were obtained as plasmids cloned in frame with a terminal NanoLuc-fusion; host or cells: HEK293T
# Description: as §3, with “Competitive displacement data were then graphed using GraphPad Prism 9 software using a normalized 3-parameter curve fit with the following equation: Y = 100/(1 + 10^(X–LogEC50)).” left out
# Target sequence in this assay (P49841 whole entry): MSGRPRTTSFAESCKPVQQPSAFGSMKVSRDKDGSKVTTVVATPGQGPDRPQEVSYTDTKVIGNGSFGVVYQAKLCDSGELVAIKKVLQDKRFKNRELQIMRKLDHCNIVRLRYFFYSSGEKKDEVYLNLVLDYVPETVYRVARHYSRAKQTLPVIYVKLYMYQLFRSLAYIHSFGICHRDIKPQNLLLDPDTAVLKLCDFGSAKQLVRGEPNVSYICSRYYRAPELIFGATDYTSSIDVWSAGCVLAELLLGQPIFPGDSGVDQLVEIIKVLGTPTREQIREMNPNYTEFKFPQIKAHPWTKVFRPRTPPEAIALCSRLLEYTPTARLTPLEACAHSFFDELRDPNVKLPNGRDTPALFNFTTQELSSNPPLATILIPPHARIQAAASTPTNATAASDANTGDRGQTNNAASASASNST
# HCT116-FUCCI cells = assay: FUCCI cell cycle assay and viability assessment; type: cell-based; conditions: 1, 5, 10 µM (milciclib 1, 10 µM), 24 h
# Description: This technology enables the detection of cell cycle states (G1, G2/M, or S phase) on a single cell level. Additionally, a viability assessment, as described by Tjaden et. al., was performed using Hoechst33342 as a nuclear marker. […] At 10 µM of the same compound, the pyknosed nuclei rate was even higher, on average 45% (Figure 9C). An increase in cells including a pyknosed nucleus indicate apoptotic cell death, due to typical morphological changes like DNA condensation. […] Milciclib is a published CDK2 inhibitor and was used as a reference compound [55]. […] At later time points, the G2/M phase arrest was no longer detectable (Table S7). This can be explained due to the increasing amount of apoptotic cells.
# To validate the influence of the compounds on the cell cycle, a florescent ubiquitination-based cell cycle indicator (FUCCI) assay was performed as described previously. In Brief, HCT116-FUCCI cells, stably expressing the FUCCI system, introduced by the Sleeping Beauty transposon system, were seeded at a density of 1250 cells per well in a 384 well plate (Cell culture microplate, PS, f-bottom, µClear®, 781091, Greiner, Frickenhausen, Germany) in culture medium (50 µL per well) and stained additionally with 60 nM Hoechst33342 (Thermo Scientific). Fluorescence and cellular shape were measured before and after compound treatment for 72 h every 12 h using the CQ1 high-content confocal microscope (Yokogawa, Tokyo, Japan). Compounds were added directly to the cells at three different concentrations (1 µM, 5 µM and 10 µM). The following parameters were used for image acquisition: Ex 405 nm/Em 447/60 nm, 500ms, 50%; Ex 561 nm/Em 617/73 nm, 100 ms, 40%; Ex 488/Em 525/50 nm, 50 ms, 40%; Ex 640 nm/Em 685/40, 50 ms, 20 %; bright field, 300ms, 100% transmission, one centered field per well, 7 z stacks per well with 55 µm spacing. Analysis of images was performed using the CellPathfinder software (Yokogawa). The cell count was normalized against the cell count of cells treated with 0.1% DMSO. All normal gated cells were further classified in cells containing healthy, fragmented or pyknosed nuclei. […] Error bars show SEM of biological duplicates. All data can be found in Table S7.
# CDK5 = conditions: cited from earlier work
# CDK2 [5] = biological target: T2, CDK2; conditions: cited from earlier work
SMILES,Kinases with shifts > 5°C [1],stabilization in CETSA MS (CDK16 and GSK3),ΔTm at 10 µM (CDK16) [°C],ΔTm at 10 µM (CDK2 [2]) [°C],EC50 (CDK16/Cyclin Y) [nM],ΔTm at 10 µM (GSK3B [3]) [°C],number of kinases targeted of 359 wild-type kinases (359 wild-type kinases),EC50 (GSK3B [4]) [nM],effect on the cell cycle (FUCCI) (HCT116-FUCCI cells),affinity for CDK5 (CDK5),affinity for CDK2 (CDK2 [5])
"COC(=O)c1cc(Nc2ccnc(Nc3ccc(CNC(=O)OC(C)(C)C)cc3)n2)[nH]n1 [21h, methyl 5-((2-((4-(((tert-butoxycarbonyl)amino)methyl)phenyl)amino)pyrimidin-4-yl)amino)-1H-pyrazole-3-carboxylate]",4–9,stabilization of CDK16 and GSK3,5.1 ± 0.1,2.5 ± 0.2,391,6 ± 0.3,,,,,
N#CCc1ccc(Nc2nc(Nc3cc(C4CC4)[nH]n3)c3ccccc3n2)cc1 [compound 3],,,,,,,317,,,,
"COC(=O)c1cc(Nc2ccnc(Nc3ccc(CCN)cc3)n2)n[nH]1 [compound 24, methyl 3-((2-((4-(2-aminoethyl)phenyl)amino)pyrimidin-4-yl)amino)-1H-pyrazole-5-carboxylate]",,,2.4 ± 0.1,3,2830 ± 544,9.5,,18000,,,
"CC(C)(C)OC(=O)NCCCCCNc1nccc(Nc2cc(C(=O)OC(C)(C)C)[nH]n2)n1 [43b, tert-butyl 3-((2-((5-((tert-butoxycarbonyl)amino)pentyl)amino)pyrimidin-4-yl)amino)-1H-pyrazole-5-carboxylate]",7–10,,9.3 ± 0.1,6.5 ± 0.1,76 ± 0.9,6.6 ± 0.1,,,,,
"CNC(=O)c1nn(C)c2c1C(C)(C)Cc1cnc(Nc3ccc(N4CCN(C)CC4)cc3)nc1-2 [Milciclib, reference compound]",,,,,,,,,G1 cell cycle arrest,,
"CC(C)OC(=O)c1cc(Nc2ccnc(NCCCCCNC(=O)OC(C)(C)C)n2)n[nH]1 [42b, isopropyl 3-((2-((5-((tert-butoxycarbonyl)amino)pentyl)amino)pyrimidin-4-yl)amino)-1H-pyrazole-5-carboxylate]",7–10,,9.1 ± 0.1,6.5,54 ± 1.8,7.8 ± 0.3,,,,,
Cc1cc(Nc2cc(N3CCN(C)CC3)nc(Sc3ccc(NC(=O)C4CC4)cc3)n2)[nH]n1 [tozasertib],,,,,,,,,,no affinity,no affinity
"COC(=O)c1cc(Nc2ccnc(Nc3ccc(CC#N)cc3)n2)[nH]n1 [21f, methyl 5-((2-((4-(cyanomethyl)phenyl)amino)pyrimidin-4-yl)amino)-1H-pyrazole-3-carboxylate]",27,,5.3,7.8,112 ± 8.6,12.3 ± 0.7,,,,,
"COC(=O)c1cc(Nc2ccnc(NCCCCCCNC(=O)OC(C)(C)C)n2)[nH]n1 [21e, methyl 5-((2-((6-((tert-butoxycarbonyl)amino)hexyl)amino)pyrimidin-4-yl)amino)-1H-pyrazole-3-carboxylate]",,stabilization of CDK16 and GSK3,8.5,6.5 ± 0.1,152,8.6 ± 0.1,,,,,
"COC(=O)c1cc(Nc2ccnc(Nc3cccc(CCNC(=O)OC(C)(C)C)c3)n2)[nH]n1 [21b, methyl 5-((2-((3-(2-((tert-butoxycarbonyl)amino)ethyl)phenyl)amino)pyrimidin-4-yl)amino)-1H-pyrazole-3-carboxylate]",,stabilization of CDK16 and GSK3,4.9,4.6 ± 0.1,688 ± 22.5,8.6 ± 0.2,,,,,
"Cc1cnc(NCCCCCCNC(=O)OC(C)(C)C)nc1Nc1cc(C2CC2)n[nH]1 [12e, tert-butyl (6-((4-((3-cyclopropyl-1H-pyrazol-5-yl)amino)-5-methylpyrimidin-2-yl)amino)hexyl)carbamate]",,,6.3,8.1 ± 0.4,191 ± 5.9,5.8 ± 0.2,,,,,
"CC(C)(C)OC(=O)NCCCCCCNc1nccc(Nc2cc(C3CC3)n[nH]2)n1 [11e, tert-butyl (6-((4-((3-cyclopropyl-1H-pyrazol-5-yl)amino)pyrimidin-2-yl)amino)hexyl)-carbamate]",,,8.9 ± 0.3,11.2 ± 0.3,36 ± 1.2,6.8,,,,,
"Cc1cnc(NCCOCCNC(=O)OC(C)(C)C)nc1Nc1cc(C2CC2)n[nH]1 [12d, tert-butyl (2-(2-((4-((3-cyclopropyl-1H-pyrazol-5-yl)amino)-5-methylpyrimidin-2-yl)amino)ethoxy)ethyl)carbamate]",,,5.8 ± 0.1,5.3,619 ± 32,6.6,,,,,
